According to PubChem BioAssay (NCI):
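In this assay, cells in 96-well plates receive the compound at five concentrations for 48 hours. Endpoints are linearly interpolated between the surrounding concentrations. GI50 = concentration required for 50% inhibition of growth. TGI: concentration producing complete growth inhibition.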

Key:
Experiment in all cases: NCI anticancer screen, dose series, 48 h
IGROV1 ovarian = system: IGROV1 ovarian
UACC-257 melanoma = system: UACC-257 melanoma
UO-31 renal = system: UO-31 renal
CCRF-CEM leukemia = system: CCRF-CEM leukemia
EKVX NSCLC = system: EKVX NSCLC
COLO 205 colon = system: COLO 205 colon
SK-MEL-5 melanoma = system: SK-MEL-5 melanoma
OVCAR-8 ovarian = system: OVCAR-8 ovarian
SN12C renal = system: SN12C renal
HCC-2998 colon = system: HCC-2998 colon

| SMILES | GI50 (IGROV1 ovarian) | TGI (IGROV1 ovarian) | GI50 (UACC-257 melanoma) | TGI (UACC-257 melanoma) | GI50 (UO-31 renal) | TGI (UO-31 renal) | GI50 (CCRF-CEM leukemia) | TGI (CCRF-CEM leukemia) | GI50 (EKVX NSCLC) | TGI (EKVX NSCLC) | GI50 (COLO 205 colon) | TGI (COLO 205 colon) | GI50 (SK-MEL-5 melanoma) | TGI (SK-MEL-5 melanoma) | GI50 (OVCAR-8 ovarian) | TGI (OVCAR-8 ovarian) | GI50 (SN12C renal) | TGI (SN12C renal) | TGI (HCC-2998 colon) | GI50 (HCC-2998 colon) |
| --- | --- | --- | --- | --- | --- | --- | --- | --- | --- | --- | --- | --- | --- | --- | --- | --- | --- | --- | --- | --- |
| N#Cc1c(N)c(C#N)c2c(c1-c1ccc(Cl)cc1)COc1ccc(F)cc1-2 | 6.24 µM | 30.5 µM | > 50 µM | > 50 µM | 10.9 µM | > 50 µM | > 50 µM | > 50 µM | 12.4 µM | > 50 µM | > 50 µM | > 50 µM | 16.4 µM | > 50 µM | > 50 µM | > 50 µM | > 50 µM | > 50 µM |  |  |
| CC1(C)CC(N2CCN(C3CC(C)(C)NC(C)(C)C3)CC2)CC(C)(C)N1 |  | > 100 µM |  | > 100 µM |  | > 100 µM |  | > 100 µM |  | > 100 µM |  |  |  | > 100 µM |  | > 100 µM |  | > 100 µM | > 100 µM |  |
| Cc1[nH]n(-c2cccc(Cl)c2)c(=O)c1/C=C1\C=c2ccccc2=CC1=O | 27.1 µM | > 100 µM | > 100 µM | > 100 µM | > 100 µM | > 100 µM | 97.5 µM | > 100 µM | > 100 µM | > 100 µM | > 100 µM | > 100 µM | > 100 µM | > 100 µM | > 100 µM | > 100 µM | > 100 µM | > 100 µM |  |  |
| N#Cc1cn(-c2c3ccccc3nc3ccccc23)c(=O)[nH]c1=O |  | 71.8 µM |  | 27.7 µM |  | 25 µM |  | 41.7 µM |  | 38.1 µM |  | 64.3 µM |  |  |  | 27.6 µM |  |  |  |  |
| CC(C)COC(c1ccc2c(c1)OCO2)C(C)Br (stereo unspecified) |  | > 100 µM |  | 55.5 µM |  | 67.5 µM |  |  |  | 76 µM |  | 49.7 µM |  | 36.4 µM |  | > 100 µM |  | 45 µM | 38.6 µM |  |
| c1cc2c(c(NC3=NCCN3)c1)CCCC2 |  | > 100 µM |  | > 100 µM |  |  |  | > 100 µM |  | > 100 µM |  | > 100 µM |  | > 100 µM |  | > 100 µM |  | > 100 µM |  |  |
| CC(=O)C(C=O)C(C)=O.CC(=O)CC(C)=O.CC(=O)CC(C)=O.[Ru] | 20.4 µM | 73.3 µM | 32.9 µM | > 100 µM | 26.9 µM | > 100 µM | 5.62 µM | 21.8 µM | 18.1 µM | 95.9 µM | 29.9 µM | > 100 µM | 0.0279 µM | 2.1 µM | 17.4 µM | > 100 µM | 1.97 µM | 9.18 µM |  |  |
| Fc1ccc(-c2nn3c(COc4ccc(Cl)cc4Cl)nnc3s2)cc1Oc1ccccc1 | 26.2 µM | 92.6 µM | 55.4 µM | > 100 µM | 30 µM | > 100 µM | 16.8 µM | 39 µM | 23.7 µM | 67.3 µM | 19.6 µM | > 100 µM | 23 µM | 71.2 µM | 27.8 µM | > 100 µM | 12.9 µM | 29.6 µM |  |  |
| N#CC1C(=O)NC(=O)C1=O (stereo unspecified) |  | > 100 µM |  | > 100 µM |  | > 100 µM |  |  |  | > 100 µM |  | > 100 µM |  | > 100 µM |  | > 100 µM |  | > 100 µM | > 100 µM |  |
| NC(=O)c1cc([N+](=O)[O-])cc([N+](=O)[O-])c1 |  | > 100 µM |  | > 100 µM |  | > 100 µM |  | > 100 µM |  | > 100 µM |  | > 100 µM |  | > 100 µM |  | > 100 µM |  | > 100 µM |  |  |
| O=C1NC(=N[C@H](CO)c2ccccc2)S/C1=C\c1ccc2ncccc2c1 | 4.44 µM | > 17.1 µM | 6.39 µM | 19.2 µM | 4.61 µM | 13.8 µM | 4.63 µM | 16.7 µM |  |  | 3.54 µM | > 25 µM | 4.89 µM | 10.6 µM | 5.27 µM | > 25 µM | 5.02 µM | > 25 µM | > 25 µM | 7.96 µM |
| CC12CC(=O)C3C(CCC4=CC(=O)CCC43C)C1CC=C2CC(=O)O (stereo unspecified) |  | > 100 µM |  | > 100 µM |  | > 100 µM |  | > 100 µM |  | > 100 µM |  | > 100 µM |  | > 100 µM |  | > 100 µM |  | > 100 µM |  |  |
| COc1cc(Cn2c(SCC(=O)Nc3ccc(Cl)cc3)nc3ccccc3c2=O)cc(OC)c1OC | 19 µM | 55.8 µM | 6.04 µM | 28 µM | 3.75 µM | 32.4 µM | > 100 µM | > 100 µM |  |  | 73.2 µM | > 100 µM | 6.38 µM | 21.2 µM | 4.82 µM | 16.1 µM | 16.9 µM | > 100 µM | > 100 µM | 26.6 µM |
| Cc1ccc(S(=O)(=O)CC2(Br)CCc3ccccc3C2=O)cc1 (stereo unspecified) |  | 41 µM |  | 44.1 µM |  | 50.5 µM |  |  |  | > 100 µM |  | 43.6 µM |  | 38.4 µM |  | 64.8 µM |  | > 100 µM |  |  |
| CC1(C)OC(=O)C(=Cc2ccc([N+](=O)[O-])s2)C(=O)O1 |  |  |  | 35.8 µM |  | 23.6 µM |  | 88.6 µM |  | 31.8 µM |  | 31 µM |  | 30 µM |  | 31.3 µM |  | 31.6 µM | 24.7 µM |  |
| CCCCCCSc1nc(COC(=O)NC)c(COC(=O)NC)n1C |  | > 100 µM |  | > 100 µM |  | > 100 µM |  | > 100 µM |  | > 100 µM |  | > 100 µM |  | > 100 µM |  | > 100 µM |  | > 100 µM |  |  |
| O=C(O)c1cn(C2CC2)c2cc(N3CCN(Cc4ccc5ccccc5c4O)CC3)c(F)cc2c1=O | 4.91 µM | > 100 µM |  |  |  |  |  |  | > 100 µM | > 100 µM | 3.27 µM | > 100 µM | 3.78 µM | > 100 µM | 3.74 µM | > 100 µM | 3.44 µM | > 100 µM |  |  |
| Nc1nc2ncn(CC(O)COC(=O)c3ccccc3)c2c(=O)[nH]1 (stereo unspecified) |  | > 100 µM |  | > 100 µM |  | > 100 µM |  | > 100 µM |  | > 100 µM |  | > 100 µM |  | > 100 µM |  | > 100 µM |  | > 100 µM |  |  |
| Cc1c(O)c(Br)c(C)c(O)c1Br (tested in a mixture with another compound) |  | 20.5 µM |  | 3.02 µM |  | 3.28 µM |  | 0.807 µM |  |  |  | 3.6 µM |  | 11.4 µM |  |  |  |  |  |  |
